The target in data set [1] is T1, Cytochrome P450 1A2 (Homo sapiens, UniProt P05177).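 Further: PubChem cytochrome P450 panel assay, CYP1A2 panel member.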
T1 sequence (P05177 whole entry): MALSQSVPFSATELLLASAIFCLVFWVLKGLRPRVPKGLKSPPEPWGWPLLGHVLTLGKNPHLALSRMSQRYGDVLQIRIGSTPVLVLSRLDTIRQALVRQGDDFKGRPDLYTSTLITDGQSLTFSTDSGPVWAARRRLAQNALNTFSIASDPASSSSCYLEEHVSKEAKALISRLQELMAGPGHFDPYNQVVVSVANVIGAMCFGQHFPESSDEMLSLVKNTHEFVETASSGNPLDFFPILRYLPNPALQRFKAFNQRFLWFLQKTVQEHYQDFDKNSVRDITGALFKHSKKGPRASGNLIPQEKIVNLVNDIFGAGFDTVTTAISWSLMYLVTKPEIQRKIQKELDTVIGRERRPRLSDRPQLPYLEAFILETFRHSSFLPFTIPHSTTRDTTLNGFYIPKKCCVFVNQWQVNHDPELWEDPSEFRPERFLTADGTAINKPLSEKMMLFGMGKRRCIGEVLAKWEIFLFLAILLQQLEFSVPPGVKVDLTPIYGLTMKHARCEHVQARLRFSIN

Data set [2] addresses Cytochrome P450 2C19 (Homo sapiens, UniProt P33261). Description: Cytochrome panel assay with activity outcomes. Panel member name: p450-cyp2c19 Compounds with AC50 equal or less than 10 uM are considered active. It is filed as functional.
Data set [3] addresses Cytochrome P450 2C9 (Homo sapiens, UniProt P11712).
Data set [4] is described as follows: inhibitors of intracellular T. cruzi replication, confirmation, NIH3T3 host cells, beta-gal luminescence (AID 2044).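 Further: intracellular parasites grown in NIH/3T3 mouse fibroblasts as host cells; luminescent beta-galactosidase reporter signal from transgenic T. cruzi replicating inside host cells; inhibitors lower the luminescence signal.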 It is filed as functional, cell-based.
Data set [5] is described as follows: cytotoxicity toward NIH3T3 fibroblasts, dose response, counter-screen, cell-based, ATP luminescence, mouse fibroblasts (AID 2010).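 Further: cells exposed to compound for about 90 hours before reading.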 It is filed as functional. (The purpose of a counterscreen is to sort out artefacts and off-target activity.)
In data set [6] the target is Cytochrome P450 3A4 (Homo sapiens, UniProt P08684).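 Further: CYP3A4 tested as one member of a cytochrome P450 panel screen.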
Cytochrome P450 3A4, sequence (P08684 whole entry): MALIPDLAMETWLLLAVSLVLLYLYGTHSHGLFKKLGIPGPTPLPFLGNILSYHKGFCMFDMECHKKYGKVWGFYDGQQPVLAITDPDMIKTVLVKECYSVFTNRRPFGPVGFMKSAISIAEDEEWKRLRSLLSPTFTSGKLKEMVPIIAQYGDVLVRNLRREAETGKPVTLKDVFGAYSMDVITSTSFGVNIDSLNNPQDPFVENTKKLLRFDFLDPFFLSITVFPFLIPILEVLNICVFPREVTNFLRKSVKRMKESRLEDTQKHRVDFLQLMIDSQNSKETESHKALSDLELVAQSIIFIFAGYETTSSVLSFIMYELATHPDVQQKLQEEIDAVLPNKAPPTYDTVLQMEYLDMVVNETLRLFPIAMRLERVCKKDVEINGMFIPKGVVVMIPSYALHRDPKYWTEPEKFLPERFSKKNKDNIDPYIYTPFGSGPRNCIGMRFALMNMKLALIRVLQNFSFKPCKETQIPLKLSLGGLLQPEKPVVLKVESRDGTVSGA
Data set [7] deals with Streptococcus sp. 'group A'. Kind of data set: growth inhibition of control SK(-) GAS strain, dose response, counter-screen for streptokinase expression inhibitor project, luminescence, kanamycin, BacTiterGlo, confirmation (AID 1900). It is filed as functional, organism-based.
Data set [8] deals with Streptococcus. Kind of data set: Group A Streptococcus viability loss, dose response, counter-screen for streptokinase expression inhibitor project, luminescence, BacTiterGlo (AID 1915).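 Further: potency for reduction of bacterial viability or growth.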 In kind it is functional, organism-based.
A short description of data set [9]: Luminescence Cell-Based Dose Response HTS to Identify Inhibitors of 5'UTR Stem-Loop Driven Prion Protein mRNA Translation in H4 Neuroglioblastoma Cells. [Related pubchem assays: 1827 (Project Summary), 1813 (Primary HTS)]. It is filed as functional.
The nature of data set [10]: inhibitors of SNCA 5'UTR-driven reporter translation, confirmation, H4 neuroglioma cells, luminescence (AID 1988). In kind it is functional, cell-based.

For 57 molecules, AC50 and EC50 results are on record in ChEMBL document CHEMBL1201862, “PubChem BioAssay data set” (2004).

SMILES strings stand for the structures. Calls of active or inactive are those of the source.

Cytochrome P450 2C19, sequence (P33261 whole entry): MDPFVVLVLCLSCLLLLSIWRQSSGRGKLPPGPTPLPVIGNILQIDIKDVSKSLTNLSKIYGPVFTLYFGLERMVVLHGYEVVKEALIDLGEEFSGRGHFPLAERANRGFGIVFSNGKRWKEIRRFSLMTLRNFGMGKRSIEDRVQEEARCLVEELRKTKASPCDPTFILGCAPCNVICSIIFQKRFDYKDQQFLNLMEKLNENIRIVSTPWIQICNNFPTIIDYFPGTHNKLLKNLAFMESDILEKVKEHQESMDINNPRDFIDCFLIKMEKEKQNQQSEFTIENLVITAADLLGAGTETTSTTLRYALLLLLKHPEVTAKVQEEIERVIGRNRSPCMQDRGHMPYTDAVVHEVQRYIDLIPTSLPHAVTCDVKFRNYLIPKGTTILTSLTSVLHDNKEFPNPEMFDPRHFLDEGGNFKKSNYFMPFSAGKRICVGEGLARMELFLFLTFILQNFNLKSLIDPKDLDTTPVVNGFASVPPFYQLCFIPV
Cytochrome P450 2C9, sequence (P11712 whole entry): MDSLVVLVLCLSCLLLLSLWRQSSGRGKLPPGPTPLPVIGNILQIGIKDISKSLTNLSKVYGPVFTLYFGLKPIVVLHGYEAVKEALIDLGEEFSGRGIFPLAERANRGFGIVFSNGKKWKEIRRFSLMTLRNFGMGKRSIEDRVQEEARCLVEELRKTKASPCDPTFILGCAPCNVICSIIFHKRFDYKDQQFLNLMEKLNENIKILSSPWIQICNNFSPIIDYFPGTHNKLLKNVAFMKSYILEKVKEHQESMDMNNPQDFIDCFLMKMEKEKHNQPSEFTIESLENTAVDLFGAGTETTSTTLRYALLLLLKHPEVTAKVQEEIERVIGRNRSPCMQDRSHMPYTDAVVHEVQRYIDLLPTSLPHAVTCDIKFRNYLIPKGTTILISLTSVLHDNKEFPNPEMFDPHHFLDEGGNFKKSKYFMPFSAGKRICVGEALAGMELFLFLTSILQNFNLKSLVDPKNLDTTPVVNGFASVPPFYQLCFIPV

The AC50 is the concentration giving half of the maximal activity seen. On to `O=C(NC1CCCCC1)C1CC=CCC1C(=O)OCC(Cl)=C(Cl)Cl` (stereo not drawn), for which the AC50 in [1] is 25.1 µM (inconclusive).

With `COc1ccc(/C=N/NC(=O)CCCC(=O)NC2CCCCC2)cc1`, the AC50 in [2] (read-out: AC50) is 14.1 µM (inconclusive); in data set [3], 10 µM (inconclusive).

As for `COc1nnc(OC)c2ccccc12`, the half-maximal activity concentration (AC50) in [2] (read-out: AC50) is 0.0631 µM (inconclusive).

`CCOc1c2ccc(C(=O)NCCCCc3ccccc3)cc2nn1CC`: the figures for the AC50 in [2] (read-out: AC50) and in data set [1] were 8.91 µM (inconclusive) and 6.31 µM (inconclusive), respectively.

Broadly, the EC50 is the concentration giving half of the maximal effect. `O=S(=O)(c1ccc2ccccc2c1)N1CCC(c2nc(-c3ccncc3)no2)CC1`: the values for the EC50 in data set [4] and in data set [5] were 0.564 µM (active) and > 60 µM (not active), respectively.

As for `COc1cccc(/N=c2\oc3c(C)ncc(CO)c3cc2C(N)=O)c1`, the results for the AC50 result in [2] and in [3] were “inconclusive” and 11.2 µM (inconclusive), respectively.

As to `Cc1cc(N2CCN(c3ccccc3)CC2)nc(NCc2ccccc2)n1`, the EC50 is 0.809 µM (active) in data set [4] and > 30 µM (not active) in data set [5].

As to `CC(C)(C)c1cc(Br)c(O)c(CN(Cc2cc(C(C)(C)C)cc(Br)c2O)C2CCCCC2)c1`, the figures for the AC50 in [1] and in data set [3] were 5.01 µM (inconclusive) and 3.16 µM (inconclusive), respectively.

In the case of `N#C[C@H](Cc1ccc(O)cc1)c1ccc(O)cc1`, the AC50 is 2 µM (inconclusive) in [2] (read-out: AC50) and 39.8 µM (inconclusive) in [3].

On to `COC(=O)[C@@]1(Cc2ccc(F)cc2)[C@H]2c3cc(C(=O)N4CCCC4)n(CCF)c3C[C@H]2CN1C(=O)c1ccccc1`, for which the half-maximal activity concentration (AC50) in data set [1] is 15.8 µM (inconclusive).

Regarding `CCSc1nnc2n(N)c(=O)c3ccccc3n12`, the AC50 in data set [6] is 15.8 µM (inconclusive).

For the molecule `NC(=S)SCCC(=O)O`, the AC50 in data set [1] was 1.58 µM (inconclusive).

Consider `Cc1nc2cnc(N3CCNCC3)nc2n(C)c1=O`, for which the AC50 result in [2] is “inconclusive”; in data set [6], 15.8 µM (inconclusive).

Turning to `C=C[C@]1(C)C[C@@H](OC(=O)CSCCN(CC)CC)[C@]2(C)C(C)CC[C@]3(CCC(=O)[C@H]32)[C@@H](C)[C@@H]1O` (stereo partly drawn), the results for the half-maximal effective concentration (EC50) in data set [7] and in [8] were < 0.06 µM (active) and 0.182 µM (active), respectively.

Consider `COc1cccc(CNCCNC(=O)c2nonc2N)c1`, for which the half-maximal activity concentration (AC50) in data set [1] is 39.8 µM (inconclusive).

Take `COc1ccc(C(=O)Nc2cc(OC)cc(OC)c2)cc1`: the AC50 in data set [3] is 22.4 µM (inconclusive).

For `Cc1cc(C(=O)N2CCCC(N3CCN(c4ccccc4C)CC3)C2)n(C)n1` (stereo not drawn), the EC50 in data set [4] and in data set [5] was > 30 µM (not active) in each case.

Turning to `CCCCN1C(=O)CCC(C(=O)O)C1c1ccccc1` (stereo not drawn), the concentration at half-maximal activity (AC50) entry in data set [2] is given as “inconclusive”.

As for `COc1ccc(N(C(=O)COc2ccccc2OC)S(=O)(=O)c2ccc(C)cc2)cc1`, the AC50 in data set [1] is 4.47 µM (inconclusive).

Take `C=CCNC(=O)c1ccc(-c2nc(-c3ccc(Cl)c(Cl)c3)cs2)cc1`: the results for the AC50 in data set [2] (read-out: AC50) and in data set [6] were 28.2 µM (inconclusive) and 7.94 µM (inconclusive), respectively.

On to `CC(C)N(CCNC(=O)C1CCN(S(=O)(=O)N2CCOCC2)CC1)Cc1ccccc1`, for which the AC50 in [2] (read-out: AC50) was 39.8 µM (inconclusive); in [3] it was 20 µM (inconclusive).

On to `CCN(c1ccccc1)S(=O)(=O)c1cc(C(=O)Nc2ccc(Br)cc2)ccc1F`, for which the EC50 in [4] is 2.66 µM (active); in data set [5] it was > 60 µM (not active).

Regarding `CCCS(=O)(=O)N1CCCC(C(=O)NCCN2CCC(Cc3ccccc3)CC2)C1` (stereo not drawn), in data set [3], the AC50 was 5.01 µM (inconclusive).

Consider `C=CCNC(=O)c1onc(CSc2ccc(F)cc2)c1C(=O)O`, for which, in data set [6], the AC50 was 22.4 µM (inconclusive).

In the case of `N#CCCn1c(=O)c(-c2ccccc2)nc2cnc(N3CCOCC3)nc21`, the AC50 in data set [1] is 10 µM (inconclusive).

Consider `CNc1cc(-c2ccccc2CN(C)C)ncn1`, for which the AC50 in [1] was 31.6 µM (inconclusive).

Turning to `CCCn1c(=O)c2c(ncn2C)n(CCC)c1=O`, the AC50 in data set [6] is 20 µM (inconclusive).

With `CCCCC(=O)Nc1nnc(SCC(=O)NC2CCCC2)s1`, the concentration at half-maximal activity (AC50) in data set [2] (read-out: AC50) was 35.5 µM (inconclusive).

With `Cc1ccc(C)c(NC(=O)C2(C)CC3c4ccccc4C2c2ccccc23)c1` (stereo not drawn), the results for the half-maximal activity concentration (AC50) in data set [2] (read-out: AC50) and in [3] were 0.00562 µM (inconclusive) and 10 µM (inconclusive), respectively.

Regarding `CN(C)CN1C(=O)S/C(=C2/C(=O)N(CN(C)C)c3ccccc32)C1=O`, the AC50 in data set [1] was 0.794 µM (inconclusive).

As for `CC(C)Oc1ccc(CSC(=N)N)cc1`, the half-maximal activity concentration (AC50) is 5.62 µM (inconclusive) in [2] (read-out: AC50) and 22.4 µM (inconclusive) in [1].

Consider `O=C(c1cccc(C(F)(F)F)c1)C1CCCN(Cc2ccc(OCCO)cc2)C1` (stereo not drawn), for which the EC50 in data set [4] is 0.402 µM (active); in [5] it was > 30 µM (not active).

For `CCN(C(=O)COC(=O)c1cc(-c2ccc3cc(OC)ccc3c2)nc2ccccc12)C1CCS(=O)(=O)C1` (stereo not drawn), the EC50 was 13.9 µM (active) in [9] and 11 µM (active) in [10].

As to `COc1ccc(Oc2ncc3nc(C)c(=O)n(CCC#N)c3n2)cc1`, in [1], the AC50 was 25.1 µM (inconclusive).

In the case of `CC(C)(C)c1ccccc1OCC(=O)Nc1ccccc1C(=O)NCc1cccnc1`, the values for the EC50 in [4] and in [5] were 3.61 µM (active) and > 60 µM (not active), respectively.

As to `Cc1cc(C)c(C#N)c(SCC(=O)Nc2nnc(-c3ccccc3)s2)n1`, the EC50 in data set [4] and in [5] was > 30 µM (not active) each time.

On to `CC(C)(Oc1ccc(-c2cccc3ccccc23)cc1)C(=O)O`, for which the AC50 result in data set [2] was “inconclusive”; in data set [3], 0.398 µM (inconclusive).

Turning to `COc1ccccc1-c1cc2nc(C)c(CCC(=O)NCc3ccc(F)cc3)c(C)n2n1`, the figures for the EC50 in [4] and in data set [5] were 2.06 µM (active) and > 60 µM (not active), respectively.

Regarding `Cc1ccc(S(=O)(=O)N[C@H](CN)C(=O)O)cc1`, the AC50 result in [2] is listed as “inconclusive”.

`O=c1cnc2cnc(N3CCNCC3)nc2n1Cc1ccc(F)cc1`: in data set [3], the AC50 is 20 µM (inconclusive).

Consider `Cc1nc2cnc(N3CCNCC3)nc2n(Cc2ccc(F)cc2)c1=O`, for which the values for the AC50 entry in [2] and in data set [3] were “inconclusive” and 25.1 µM (inconclusive), respectively.

Take `Cc1c(S(=O)(=O)O)ccc(/N=N\c2c(O)c(C(=O)O)cc3ccccc23)c1Cl`: in data set [1], the half-maximal activity concentration (AC50) is 5.01 µM (inconclusive).

On to `CC(C)CCn1nnnc1C(c1ccc(F)cc1)N1CCN(C(=O)c2ccco2)CC1` (stereo not drawn), for which the AC50 in data set [3] was 11.2 µM (inconclusive).

For `O=C(NCc1cccnc1)c1ccc(-c2cc(Cl)ccc2Cl)o1`, the EC50 in data set [4] was 1.72 µM (active); in [5], > 30 µM (not active).

In the case of `Fc1cccc(C[n+]2csc3ccccc32)c1`, the EC50 in [4] is 1.99 µM (active); in data set [5], > 60 µM (not active).

For the molecule `CCN1CCN(c2ccc(S(=O)(=O)N3CCCCC3)cc2NC(=O)c2ccc(C)o2)CC1`, the EC50 in [4] was 2.01 µM (active); in [5], > 60 µM (not active).

Regarding `COc1ccccc1CNc1cc(-c2ccccc2Cl)ncn1`, in [6], the AC50 was 39.8 µM (inconclusive).

Take `Cc1nc2cnc(N3CCN(C)CC3)nc2n(CCc2ccccc2)c1=O`: the AC50 in data set [6] was 15.8 µM (inconclusive).

For the molecule `CC(=O)c1ccc(N2CCN(c3ccc(S(=O)(=O)NCCN(C)C)cc3[N+](=O)[O-])CC2)cc1`, the results for the EC50 in [4] and in data set [5] were 0.454 µM (active) and > 16 µM (not active), respectively.

As for `Cn1cccc1C(=O)N1CCC2(CCN(Cc3ccncc3)CC2)CC1`, the results for the concentration at half-maximal activity (AC50) in data set [2] (read-out: AC50), in [1] and in data set [6] were 15.8 µM (inconclusive), 15.8 µM (inconclusive) and 12.6 µM (inconclusive), respectively.

As for `CC(=O)OC[C@@H]1O[C@H](C/C=N\OCC[C@H]2C=C[C@H](OC(C)=O)[C@@H](COC(C)=O)O2)C=C[C@@H]1OC(C)=O`, the AC50 entry in data set [2] was “inconclusive”; in [6], 3.16 µM (inconclusive).

Turning to `CCN1CCN(Cc2ccc(NC(=O)c3cc(NC(=O)c4cc(-c5ccc(OC)cc5)[nH]n4)cc(OC)c3)cc2C(F)(F)F)CC1`, the EC50 in data set [7] is 4.15 µM (active); in [8] it was 7.21 µM (active).

Regarding `C/C(=N/CCN1CCN(C(=S)Nc2ccccc2)CC1)C1=C(O)CC(C)(C)CC1=O`, the AC50 in data set [3] is 28.2 µM (inconclusive).

On to `COc1ccccc1CNc1ncnc2ccc(-c3cccnc3)cc12`, for which the AC50 in [2] (read-out: AC50) was 20 µM (inconclusive).

On to `O=C(O)C1CCN(c2ncnc3ccc(-c4ccccc4C(F)(F)F)cc23)CC1`, for which, in data set [6], the AC50 was 39.8 µM (inconclusive).

Regarding `Cc1ccc2c(c1)C1CN(C)CCC1N2C(=S)NC(=O)c1ccc(Br)cc1` (stereo not drawn), the EC50 in [4] was 0.828 µM (active); in data set [5], 41.5 µM (active).

With `COCc1nc2c([nH]1)c(=O)n(C)c(=O)n2CC(C)C`, in data set [6], the AC50 was 1.26 µM (inconclusive).
